{
  "source": "patent EP3860599B1",
  "about": "“(+)-ALPHA-DIHYDROTETRABENAZINE DOSAGE REGIMEN FOR TREATING MOVEMENT DISORDERS” (Adeptio Pharmaceuticals Limited, priority 2018, dated 2020)",
  "tested_on": "amphetamine-induced rats",
  "assay": "Open field locomotor activity test in amphetamine-induced rats (Example 2, Studies 1, 2 and 4)",
  "type": "in vivo",
  "experimental": "All animal experiments were carried out according to the National Institute of Health (NIH) guidelines for the care and use of laboratory animals, and approved by the National Animal Experiment Board, Finland. Male CD (Charles River Laboratories, Germany) at weight range of 200-250 g (165-200 g upon arrival) were used for the experiments. Animals were housed at a standard temperature (22 ± 1°C) and in a light-controlled environment (lights on from 7 am to 8 pm) with ad libitum access to food and water.\nLocomotor activity of the rats was tested in open field arena. The open field test was performed during the rat light cycle and under a normal lighting evenly distributed to the test chambers. The paths of the rats were recorded by activity monitor (Med. Associates Inc.).\nDosing the vehicle, vehicle-amphetamine, (+)-α-DHTBZ or risperidone was done prior to LMA test. The rats were placed in the centre of the arena, and the path was recorded for 60 minutes.\nAnimals were grouped as follows: • Group 1: 10 rats treated with Vehicle (t= 0 min) and Vehicle (t= 30 min) • Group 2: 10 rats treated with Vehicle (t= 0 min) and Amphetamine (t= 30 min) • Group 3: 10 rats treated with (+)-α-DHTBZ 0.5 mg/kg (t=0 min) and Amphetamine (t= 30 min) • Group 4: 10 rats treated with (+)-α-DHTBZ 1 mg/kg (t=0 min) and Amphetamine (t= 30 min) • Group 5: 10 rats treated with (+)-α-DHTBZ 1.5 mg/kg (t=0 min) and Amphetamine (t= 30 min) • Group 6: 10 rats treated with (+)-α-DHTBZ 2 mg/kg (t=0 min) and Amphetamine (t= 30 min) • Group 7: 10 rats treated with risperidone 1 mg/kg (t=0 min) and Amphetamine (t= 30 min)\nAnimals were grouped as follows: • Group 1: 10 rats treated with Vehicle (t= 0 min) and Vehicle (t= 30 min) • Group 2: 10 rats treated with Vehicle (t= 0 min) and Amphetamine (t= 30 min) • Group 3: 10 rats treated with (+)-α-DHTBZ 0.1 mg/kg (t=0 min) and Amphetamine (t=30 min) • Group 4: 10 rats treated with (+)-α-DHTBZ 0.25 mg/kg (t=0 min) and Amphetamine (t=30 min) • Group 5: 10 rats treated with risperidone 1 mg/kg (t=0 min) and Amphetamine (t= 30 min)\nAnimals were grouped as follows: • Group 1: 10 rats treated with Vehicle (t= 0 min) and Vehicle (t= 30 min) • Group 2: 10 rats treated with Vehicle (t= 0 min) and Amphetamine (t= 30 min) • Group 3: 10 rats treated with (+)-α-DHTBZ 1 mg/kg (t=0 min) and Amphetamine (t=30 min) • Group 4: 10 rats treated with (+)-α-DHTBZ 1.5 mg/kg (t=0 min) and Amphetamine (t=30 min) • Group 5: 10 rats treated with Valbenazine 1 mg/kg (t=0 min) and Amphetamine (t=30 min) • Group 6: 10 rats treated with Valbenazine 1.5 mg/kg (t=0 min) and Amphetamine (t=30 min) • Group 7: 10 rats treated with risperidone 1 mg/kg (t=0 min) and Amphetamine (t= 30 min)",
  "key": {"[1]": {"conditions": "Study 1 conclusions, all the tested doses (0.5, 1, 1.5 and 2 mg/kg)"}},
  "data": [
    {"smiles": "COc1cc2c(cc1OC)[C@H]1C[C@@H](O)[C@H](CC(C)C)CN1CC2", "note": "[(+)-α-dihydrotetrabenazine, (R,R,R)-3-isobutyl-9,10-dimethyloxy-1,3,4,5,7,11b-hexahydro-2H-pyrido[2,1-a]isoquinolin-2-ol]", "values": [
      {"measurement": "locomotor activity when compared to the vehicle-amphetamine group", "setting": "[1]", "result": "lower locomotor activity"},
      {"measurement": "stereotypic behaviour when compared to the vehicle-amphetamine group", "setting": "[1]", "result": "reduced stereotypic behaviour"},
      {"measurement": "locomotor activity when compared to the vehicle-amphetamine group", "setting": "Study 2 conclusions, 0.25 mg/kg", "result": "lower locomotor activity"},
      {"measurement": "stereotypic behaviour when compared to the vehicle-amphetamine group", "setting": "Study 2 conclusions, both the tested doses (0.1 mg/kg and 0.25 mg/kg)", "result": "reduced stereotypic behaviour"},
      {"measurement": "locomotor activity when compared to the vehicle-amphetamine group and the corresponding dose of Valbenazine", "setting": "Study 4 conclusions, 1 mg/kg and 1.5 mg/kg", "result": "lower locomotor activity"},
      {"measurement": "stereotypic behaviour when compared to the vehicle-amphetamine group and the corresponding dose of Valbenazine", "setting": "Study 4 conclusions, both the tested doses (1 mg/kg and 1.5 mg/kg)", "result": "reduced stereotypic behaviour"}
    ]}
  ]
}
